Key:
[1] = tested on: human monocytes; experiment: In vitro stimulation of human monocytes; type: cell-based; conditions: LPS stimulation 24 hours, 100 μM (FIG. 10)
Description: The mononuclear cell fraction was isolated from the blood of healthy volunteers (Sanquin Bloodbank, Amsterdam, The Netherlands) by density centrifugation using Lymphoprep™ (Axis-Shield) and isolated using human CD14 magnetic beads and MACS® cell separation columns (Miltenyi Biotec) according to the manufacturer's instructions. Isolated primary human monocytes were counted and seeded at 1>10^6 cells/mL in 24-well plates with 1 ml medium supplemented with 10% fetal bovine serum, 100 U/ml penicillin, 100 μg/ml streptomycin, 2 mM L-glutamine. After seeding, cells were stimulated with 10 ng/ml LPS or 25 mM D-glucose (both Sigma-Aldrich) for 24 hours with/without 100 μM 6-BT. Afterwards, cells were lysed with Tripure isolation reagent (Roche) and stored at −80° C. until RNA isolation.
(§1) Total RNA was extracted from Tripure isolation reagent cell lysates. RNA was converted to cDNA by with iScript kit (BioRad). Quantitative polymerase chain reaction (qPCR) was performed using SYBR Green-SensiMix (Bioline) on a CFX384 Touch Real-Time PCR Detection System (BioRad). The delta delta Ct method was used to calculate gene expression as fold-change compared to control (unstimulated conditions).

[2] = tested on: murine DC; experiment: In vitro stimulation of murine dendritic cells, cytokine secretion; type: cell-based; conditions: GM-CSF differentiated DC
Description: Bone marrow-derived macrophages (BMDM) and DC (BMDC) were obtained by differentiating freshly isolated BM cells from femur and tibia bones (as above described) of C57/B16 mice (N=3 per experiment). For BMDM, BM cells were seeded at 3×10^6 cells per 10 cm dish and cultured for 7 days in 12 ml RPMI1640 medium with 20% fetal bovine serum, 30% L-929 cell conditioned media, as source of murine macrophage colony-stimulating factor (M-CSF). For BMDC, BM cells were seeded at 0.5×10^6/ml cells in 25 ml in 10 cm dishes and cultured for 7 days in presence of GM-CSF in 5% FBS-RPMI1640 medium. After differentiation, BMDM/DCs were harvested, counted and seeded at a density of 1×10^5 cells per well in a F-bottom 96-well plate and left to adhere for 20 hours before experiments were performed. […]
Specific ELISAs (R&D Systems) were utilized to measure the concentration of TNFα, IFNβ, and IFNγ in cell supernatant of murine monocytes, macrophages ad T cells, respectively, according to the manufacturer's instructions. The concentration of insulin after 24-hour treatment with metabolites or after GSIS were determined using Rat insulin ELISA (Mercodia) according to the manufacturer's instructions. GSIS was calculated by subtracting the concentration of insulin at 1 mM glucose to the insulin rate at 22 mM glucose. […]

[3] = tested on: INS1E cells; experiment: In vitro stimulation of pancreatic beta cells: gene expression and insulin secretion; type: cell-based, rat
Description: INS1E cells (rat pancreatic beta-cell line) were maintained in complete RPMI1640 supplemented with 5% Fetal Bovine Serum, 2 mM L-glutamine, 5 μM beta-mercaptoethanol, 1 mM sodium pyruvate, 10 mM HEPES, 100 units/ml of penicillin and 100 μg/ml streptomycin. INSIE cells were seeded in 48-well plates at a density of 1×10^5 cells per well and left resting for one day. Subsequently, medium was replaced with 0.5 ml/well of INS1E complete RPMI1640 medium containing vehicle or the metabolites: 6-BT (1/10/25 μM), LysoPC(20:0) (5/10/50 μM), or MA-GPC (10/50/100 μM). After 24 hours, cells and supernatant were harvested for further analysis (gene expression and insulin secretion, respectively) and stored at −80° C. Cells were lysed in Tripure isolation reagent (Roche) before storage.
For glucose-stimulated insulin secretion (GSIS) assay, cells were preincubated in a Krebs-Ringer bicarbonate buffer (KRB) [115 mM NaCl, 5 mM KCl, 2.56 mM CaCl2), 1 mM MgCl2, 10 mM NaHCO3, 15 mM HEPES, and 0.3% of BSA (pH 7.4)] for 30 min at 37° C., following by stimulation with 1 mM glucose in KRB for 1 hour (0.5 ml/well) and stimulation with 22 mM glucose in KRB for another hour (0.5 ml/well) at 37° C. Supernatant was recovered after treatment with 1 mM glucose (Sigma-Aldrich) and 22 mM glucose and cells stored at −80° C. GSIS was performed on beta cells after treatment for 24-hour treatment with 10 μM 6-BT.
Specific ELISAs (R&D Systems) were utilized to measure the concentration of TNFα, IFNβ, and IFNγ in cell supernatant of murine monocytes, macrophages ad T cells, respectively, according to the manufacturer's instructions. The concentration of insulin after 24-hour treatment with metabolites or after GSIS were determined using Rat insulin ELISA (Mercodia) according to the manufacturer's instructions. GSIS was calculated by subtracting the concentration of insulin at 1 mM glucose to the insulin rate at 22 mM glucose.
as §1
Given the positive association between plasma 6-BT levels and C-peptide concentrations (found in the clinical study), it was then questioned whether 6-BT can exert a direct effect on beta cells. Indeed, it is seen here that 6-BT induces, in IS1E beta cells, the gene expression of the transcription factors PDX1 and MAFA, which are important for beta cell maturation and functionality.

[4] = tested on: murine CD4 T cells; experiment: Seahorse XF mitochondrial metabolism (OCR), murine CD4 T cells; type: cell-based; conditions: 100 uM; murine CD4 T cells (FIG. 22)
Description: Finally, it was uncovered that 6-BT also impacts the intracellular metabolism.
OCR=oxygen consumption rate, used as a proxy of cellular utilization of mitochondrial oxidative phosphorylation. OCR was measured using a Seahorse XF Analyzer Uchimura T., The Innate Immune Sensor NLRC3 Acts as a Rheostat that Fine-Tunes T Cell Responses in Infection and Autoimmunity. Immunity 2019; Chou, AIM2 in regulatory T cells restrains autoimmune diseases, Nature 2021.

N[C@@H](Cc1c[nH]c2cc(Br)ccc12)C(=O)O [6-BT, 6-bromotryptophan]
cytokine production by human monocytes [1]: reduces cytokine production | secretion of IFNbeta by DC ([2]; TLR3 activation with 10 μg/ml poly(I.C) (FIG. 15)): inhibits the secretion | secretion of TNFα by DC ([2]; TLR4 activation with 100 μg/ml LPS (FIG. 15)): inhibits the secretion | pancreatic beta-cell function ([3]; INS1e beta-cells treated for 24 hours, beta cell differentiation markers (FIGS. 12 and 13)): enhances pancreatic beta-cell function | gene expression of the transcription factor MAFA ([3]; beta cells (FIG. 17)): induces | gene expression of the transcription factor PDX1 ([3]; beta cells (FIG. 17)): induces | insulin secretion at steady-state ([3]; beta cells, 24-hour treatment (FIG. 17)): promotes insulin secretion | glucose-stimulated insulin secretion ([3]; difference between insulin release at 1 mM and 22 mM glucose, 24-hour treatment with 10 μM): promotes insulin secretion | mitochondrial metabolism (OCR) [4]: promotes the mitochondrial metabolism
